Assay results as given in patent US20180318280A1 (Salmon Pharma GmbH, priority 2017, published 2018).

Tests used:
[1] = given in combination with the phosphate binder sevelamer; cited from earlier work
serum phosphate = assay: Phase II dose finding study (DONATO), patients on hemodialysis: serum phosphate; format: in vivo, human; details: for a 0.22603 mmol/l phosphate level reduction against compare group; dose response of modified release capsules, 4 weeks
Excerpt: Secondary outcome criteria included a comparison of the two different […] of nicotinamide by means of several measures of safety and efficacy.

GPR109A receptor = GPR109A receptor (Homo sapiens, UniProt Q8TDS4); details: cited from earlier work
[2] = system: S-phosphate, fractional phosphate elimination, FGF23; assay: DBA/2 mice: S-phosphate, fractional phosphate elimination, FGF23; format: in vivo, mouse; details: for FGF23 / fractional phosphate elimination: DBA/2 mice
Excerpt: For this purpose, 5/6 nephrectomized DBA/2 mice were used as model for vascular calcification.

Chain of GPR109A receptor (Q8TDS4 whole entry): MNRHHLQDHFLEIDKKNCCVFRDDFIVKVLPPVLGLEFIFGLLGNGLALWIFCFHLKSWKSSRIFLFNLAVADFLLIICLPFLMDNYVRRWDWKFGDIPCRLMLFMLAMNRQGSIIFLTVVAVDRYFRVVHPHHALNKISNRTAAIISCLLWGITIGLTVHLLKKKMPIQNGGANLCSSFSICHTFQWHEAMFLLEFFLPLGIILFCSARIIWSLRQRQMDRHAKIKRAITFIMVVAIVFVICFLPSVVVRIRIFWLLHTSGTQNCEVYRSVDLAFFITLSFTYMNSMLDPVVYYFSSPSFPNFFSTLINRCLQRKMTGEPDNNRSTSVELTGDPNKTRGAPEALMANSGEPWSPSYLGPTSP

| SMILES | treatment of hyperphosphatemia [1] | minimum effective dose (serum phosphate) [mg] | binding to or effect on the GPR109A receptor (GPR109A receptor) | FGF23 [2] | fractional phosphate elimination [2] | S-phosphate ([2]; only in healthy DBA/2 mice with high phosphate diet, NA in the drinking water) |
| --- | --- | --- | --- | --- | --- | --- |
| NC(=O)c1cccnc1 [nicotinamide] | ineffective | 450 | does not bind or otherwise affect | reduction | reduction | decrease |
| O=C([O-])[O-].[Mg+2] [magnesium carbonate] |  |  |  | reduction | reduction |  |
